Some test systems named below: SN12C; A549; LOX IMVI; SNB-75; HL-60; SK-MEL-5; 786-0; HCC 2998; CAKI-1; SR; UACC-62; OVCAR-4; SF-295; NCI-H460; NCI-H23; CCRF-CEM; A498.
Test in all cases: inhibition of tumour cell growth, NCI panel, 48 h

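Test compounds were applied to cells in 96-well plates for 48 hours at 5 doses. At the GI50, growth is halved.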 The source made the active and inactive calls. Rule as the data show it: active = GI50 up to about 1.1 µM and inactive = higher.

For the compound `C/C(=N/O)c1ccc2c(c1)/C(=N/O)c1cc(/C(C)=N/O)ccc1-2`, the GI50 in the experiment on SN12C is 16.3 µM (inactive); in the experiment on A549, 10.6 µM (inactive); with LOX IMVI it was 13 µM (inactive); in the experiment with SNB-75, 17.9 µM (inactive); with HL-60, 18.4 µM (inactive); in the experiment on SK-MEL-5, 14.9 µM (inactive). Moreover, the GI50 is 17.2 µM (inactive) in the experiment on 786-0; 15.3 µM (inactive) in the experiment with HCC 2998; 35.8 µM (inactive) in the experiment with CAKI-1; 3.45 µM (inactive) in the experiment with SR; 14.2 µM (inactive) in the experiment with UACC-62; 16.3 µM (inactive) in the experiment on OVCAR-4. Besides, the GI50 in the experiment with SF-295 is 15.3 µM (inactive); in the experiment with NCI-H460, 17.7 µM (inactive); in the experiment on NCI-H23, 12.9 µM (inactive).
`O=[N+]([O-])c1cc(/C=N/NS(=O)(=O)c2ccc(F)cc2)c(O)c([N+](=O)[O-])c1`: the GI50 in the experiment with SN12C is 33.7 µM (inactive); with CCRF-CEM, 37.6 µM (inactive); in the experiment with A549, 48 µM (inactive); with LOX IMVI it was 39.5 µM (inactive); with A498 it was 29.9 µM (inactive); in the experiment with SNB-75, 25.9 µM (inactive). Also, the GI50 is 38.5 µM (inactive) with HL-60; 25.7 µM (inactive) with SK-MEL-5; 41.3 µM (inactive) in the experiment on 786-0; > 100 µM (inactive) in the experiment on HCC 2998; 76.2 µM (inactive) in the experiment on CAKI-1; 18.4 µM (inactive) with SR. Moreover, the GI50 is 46.3 µM (inactive) in the experiment with UACC-62; 58.1 µM (inactive) with OVCAR-4; 52.8 µM (inactive) in the experiment on SF-295; 28.8 µM (inactive) in the experiment with NCI-H460; 24.9 µM (inactive) with NCI-H23.
In the case of `CC1=CC(=C(c2ccc(N)c(C)c2)c2ccc(N)c(C)c2)C=CC1=N`, the GI50 in the experiment with SN12C is 0.33 µM (active); with CCRF-CEM, 2.86 µM (inactive); in the experiment with A549, 3.6 µM (inactive); with LOX IMVI, 4.2 µM (inactive); in the experiment with A498, 9.16 µM (inactive); in the experiment with SNB-75 it was 1.51 µM (inactive). Further, the GI50 in the experiment with HL-60 is 3.72 µM (inactive); in the experiment on SK-MEL-5 it was 2.07 µM (inactive); with 786-0, 3.11 µM (inactive); in the experiment with HCC 2998, 3.44 µM (inactive); in the experiment on CAKI-1, 15.2 µM (inactive); in the experiment on SR, 2.99 µM (inactive). Besides, the GI50 in the experiment on UACC-62 is 2.69 µM (inactive); in the experiment on OVCAR-4, 10.5 µM (inactive); in the experiment with SF-295 it was 0.873 µM (active); with NCI-H460, 3.61 µM (inactive); with NCI-H23 it was 2.97 µM (inactive).
As for `COc1ccc(C(=O)C(CC2C(=O)NC(=O)NC2=O)c2ccc(OC)cc2)cc1` (stereo not drawn), the GI50 in the experiment on SN12C, in the experiment on CCRF-CEM, in the experiment on A549, with LOX IMVI, in the experiment with A498 and with SNB-75 was > 100 µM (inactive) in each case. The GI50 in the experiment on HL-60, in the experiment on SK-MEL-5, with 786-0, with HCC 2998, in the experiment with CAKI-1 and with SR was > 100 µM (inactive) in each case. The GI50 in the experiment on UACC-62, in the experiment on OVCAR-4, with SF-295, in the experiment with NCI-H460 and in the experiment on NCI-H23 was > 100 µM (inactive) throughout.
On to `CCCCCCCCCCCCCCCC(=O)NCC(COP(=O)([O-])OCC[N+](C)(C)C)OCC` (stereo not drawn), for which the GI50 was 12.5 µM (inactive) with SN12C; 21 µM (inactive) in the experiment on A549; 16.3 µM (inactive) in the experiment on LOX IMVI; > 10 µM (inactive) with A498; 11 µM (inactive) in the experiment with SNB-75; 18.9 µM (inactive) in the experiment with SK-MEL-5. Further, the GI50 is 2.54 µM (inactive) with 786-0; 1.55 µM (inactive) in the experiment on HCC 2998; 19.7 µM (inactive) in the experiment on CAKI-1; 4.58 µM (inactive) in the experiment with SR; 9.35 µM (inactive) in the experiment with UACC-62; 3.21 µM (inactive) in the experiment with OVCAR-4. Further, the GI50 was 5.2 µM (inactive) with SF-295, 2.96 µM (inactive) in the experiment with NCI-H460 and 18.8 µM (inactive) with NCI-H23.
For `CCC12C=CCN(CCc3c([nH]c4ccccc34)/C=C\1)C2` (stereo not drawn), the GI50 in the experiment with SN12C is > 100 µM (inactive); in the experiment on CCRF-CEM, > 100 µM (inactive); in the experiment with A549 it was > 100 µM (inactive); with LOX IMVI, > 100 µM (inactive); in the experiment with A498 it was > 100 µM (inactive); in the experiment with SNB-75, 44.6 µM (inactive). For the same compound, the GI50 in the experiment on HL-60, with SK-MEL-5, with 786-0, in the experiment with HCC 2998, in the experiment on CAKI-1 and with SR was > 100 µM (inactive) in each case. In addition, the GI50 in the experiment on UACC-62, in the experiment on OVCAR-4, in the experiment with SF-295, in the experiment with NCI-H460 and in the experiment on NCI-H23 was > 100 µM (inactive) in each case.
For `C=CCc1ccc(O)c(-c2cc(C3Oc4c(-c5cc(CC=C)ccc5O)cc(O)cc4[C@@H]3CO)ccc2O)c1` (stereo partly drawn), the GI50 in the experiment on SN12C was 32.9 µM (inactive); with CCRF-CEM, 20.7 µM (inactive); with A549, 56 µM (inactive); in the experiment with LOX IMVI, 16.9 µM (inactive); in the experiment on A498, 14.8 µM (inactive); with SNB-75 it was 45.9 µM (inactive). Further, the GI50 with HL-60 was 18.5 µM (inactive); with SK-MEL-5, 16 µM (inactive); with 786-0, 33.5 µM (inactive); with HCC 2998, 22.1 µM (inactive); in the experiment with CAKI-1, 47.3 µM (inactive); in the experiment with SR, 14.4 µM (inactive). Also, the GI50 in the experiment on UACC-62 is 30.3 µM (inactive); in the experiment with OVCAR-4, 36.9 µM (inactive); in the experiment with SF-295, 48.3 µM (inactive); with NCI-H460, 66.2 µM (inactive); with NCI-H23, 23.7 µM (inactive).
Turning to `O=C(O)CSc1nnc(-c2ccccc2O)[nH]1`, the GI50 with SN12C, in the experiment with CCRF-CEM, in the experiment on A549, with LOX IMVI, in the experiment on A498 and with SNB-75 was > 100 µM (inactive) in each case. Moreover, the GI50 with HL-60, in the experiment with SK-MEL-5, with 786-0, in the experiment on HCC 2998, in the experiment on CAKI-1 and with SR was > 100 µM (inactive) throughout. The GI50 with UACC-62, in the experiment on OVCAR-4, with SF-295, with NCI-H460 and in the experiment on NCI-H23 was > 100 µM (inactive) each time.
As for `COc1ccc(C(=O)C(c2ccc(OC)cc2)C2(O)C(=O)Nc3c(C)cc(Cl)cc32)cc1` (stereo not drawn), the GI50 in the experiment with SN12C is 58.1 µM (inactive); with CCRF-CEM it was 10.3 µM (inactive); in the experiment on A549 it was > 100 µM (inactive); in the experiment on A498, > 100 µM (inactive); in the experiment with SNB-75, 33.2 µM (inactive); with HL-60 it was 17.1 µM (inactive). Further, the GI50 is > 100 µM (inactive) in the experiment with 786-0; > 100 µM (inactive) with HCC 2998; 12.5 µM (inactive) with SR; 23.2 µM (inactive) with UACC-62; 63.2 µM (inactive) in the experiment with OVCAR-4; 54.8 µM (inactive) with SF-295. Also, the GI50 in the experiment on NCI-H460 was > 100 µM (inactive); in the experiment on NCI-H23, 85.5 µM (inactive).
For `CN(C)/N=N/c1cccc(C(N)=O)c1`, the GI50 is > 100 µM (inactive) in the experiment with SN12C; > 100 µM (inactive) in the experiment on CCRF-CEM; > 100 µM (inactive) in the experiment on A549; > 100 µM (inactive) in the experiment on A498; 69.3 µM (inactive) with SNB-75; > 100 µM (inactive) with HL-60. For the same compound, the GI50 with SK-MEL-5, with 786-0, in the experiment with HCC 2998, in the experiment on CAKI-1, with SR and with OVCAR-4 was > 100 µM (inactive) throughout. Further, the GI50 in the experiment with SF-295, in the experiment with NCI-H460 and with NCI-H23 was > 100 µM (inactive) throughout.
`C=CCC1C(=O)CC2(C)CC(=O)C(CC=C)C12C` (stereo not drawn): the GI50 with SN12C was > 100 µM (inactive); in the experiment on CCRF-CEM it was > 100 µM (inactive); in the experiment with A549, > 100 µM (inactive); in the experiment with LOX IMVI it was > 100 µM (inactive); with SNB-75 it was 76.9 µM (inactive); in the experiment on HL-60, > 100 µM (inactive). Also, the GI50 in the experiment on SK-MEL-5, in the experiment with 786-0, with HCC 2998, in the experiment on CAKI-1, in the experiment with SR and in the experiment on UACC-62 was > 100 µM (inactive) in each case. Moreover, the GI50 was 91 µM (inactive) in the experiment with OVCAR-4, > 100 µM (inactive) in the experiment with SF-295, > 100 µM (inactive) in the experiment with NCI-H460 and > 100 µM (inactive) in the experiment on NCI-H23.
In the case of `Cn1cnc([N+](=O)[O-])c1Sc1nnnn1C`, the GI50 in the experiment on SN12C is 16.3 µM (inactive); with CCRF-CEM, 7.46 µM (inactive); with A549 it was 99.5 µM (inactive); with LOX IMVI, 13.4 µM (inactive); with A498, 65.6 µM (inactive); in the experiment on SNB-75, 25.3 µM (inactive). Further, the GI50 with SK-MEL-5 is 17.3 µM (inactive); in the experiment on 786-0 it was 17.6 µM (inactive); with HCC 2998, 23.6 µM (inactive); with CAKI-1, 17.1 µM (inactive); with SR it was 11.4 µM (inactive); in the experiment on UACC-62 it was 17.1 µM (inactive). Also, the GI50 with OVCAR-4 was 16.9 µM (inactive); in the experiment with SF-295, > 100 µM (inactive); in the experiment on NCI-H460, 39.8 µM (inactive); with NCI-H23, 19.6 µM (inactive).
